Data on 3 compounds can be found in article PMC3341351, “Down-Regulation of GABAA Receptor via Promiscuity with the Vasoactive Peptide Urotensin II Receptor. Potential Involvement in Astrocyte Plasticity” (PLoS ONE, 2012).

What all share (format): cell-based
For assay [1], the system named is GABAAR (β3^HA) at the plasma membrane, no UT. Nature of the assay: GABAAR internalization by immunofluorescence in CHO expressing GABAAR alone. The settings on record: hUII 10^−8 M, Iso 10^−4 M or both. The protocol: (§1) For double-immunofluorescence, non-permeabilized living CHO cells expressing UT and/or α2β3 ^HAγ2 GABAA receptors were washed two times in PBS, and incubated with monoclonal mouse anti-c-myc and rabbit polyclonal anti-HA (1∶200, Santa-cruz) for 1 h on ice in DMEM. Excess antibody was removed and cells were incubated with the different receptor agonists for 30 min at RT. After several rinses in PBS, cells were fixed in 4% paraformaldehyde at 4°C for 20 min, washed three times in PBS and then incubated at RT for 2 h with appropriate secondary antibodies, i.e. Alexa-488- and 594-conjugated donkey anti-mouse IgGs diluted 1∶300 (Invitrogen). After washing, coverslips were mounted in Eukitt (VWR International, Strasbourg, France).
(§2) All preparations were examined using a confocal laser-scanning microscope (Leica, Heidelberg, Germany) equipped with a Diaplan optical system, a UV laser (excitation wavelength 405 nm) and argon/krypton ion (excitation wavelengths 488/594 nm) laser.

For assay [2], the system named is GABAAR (β3^HA) at the plasma membrane of CHO co-expressing human UT. Nature of the assay: GABAAR internalization by immunofluorescence in CHO-UT-GABAAR (α2β3^HAγ2). The following applies: hUII 10^−8 M, Iso 10^−4 M or both; 60 min (Figure 9 legend); mean ± SEM, 3 to 18 cells. The protocol:
as §1, with “Excess antibody was removed and cells were incubated with the different receptor agonists for 30 min at RT.” left out
as §2

For the next assay, the system named is human UT^c-myc. Nature of the assay: Cell surface ELISA of UT^c-myc in CHO. The settings on record: hUII 10^−8 M, 30 min. From the text: For UT epitope-tagged with HA (UT^HA), or c-myc (UT^c-myc), human UT receptor cDNA inserted into pcDNA3.1 (Ressource Center, MI, USA) was amplified and PCR products were subcloned using the EcoRI and XhoI sites of pCMV-HA or pCMV-c-myc. Mutant UT receptor cDNAs were constructed by oligonucleotide-directed mutagenesis (Expand High Fidelity PCR System; Roche) using the human UT receptor cDNA inserted into pcDNA3.1 as a template. Two sets of forward and reverse oligonucleotides were used (Table S2) to introduce stop codons in frame of Leu370, Phe351, Gly332 and Thr319 (to generate UT371, UT351, UT332 and UT319, respectively). PCR products were subcloned using the EcoRI and XhoI sites of pCMV-HA after digestion by the same restriction enzymes. Mutagenesis was confirmed by automated nucleotide sequencing.
Cells were plated at 50 000 cells/well in 96-well plates coated with 0.1 mg/ml poly-L-ornithine (Sigma-Aldrich). […] The cells were washed four times with PBS, a colorimetric alkaline phosphatase substrate was added (SuperSignal ELISA, Thermo scientific, Fisher) and the resulting color reaction was measured using a Viktor multilabel plate reader (PerkinElmer, Courtaboeuf, France). Background absorbance from samples transfected with non-tagged receptors or from cells without first antibodies were systematically measured. […]
A general note: In an ELISA, binding on a coated surface is turned into a signal by an enzyme label.

The test system of another assay is UT in human U87 glioma. In words: Flow cytometry of cell surface UT in U87 glioma. The settings on record: hUII 10^−8 M, 30 min. On the procedure: (§3) The human cell line from glioblastoma U87 was obtained from the American Type Culture Collection (LGC Standards, Molsheim, France). U87 cells were maintained in DMEM containing 10% FBS and 1% sodium pyruvate. NHA-Astrocytes (Lonza, Walkersville, MD, USA) were cultivated in DMEM culture medium supplemented with 2 mM glutamine, 5 mM HEPES, 1% non essential amino acids, 1% sodium pyruvate, B27, 25 ng/ml EGF, 1% of the antibiotic-antimycotic solution and 10% FBS. All cells were incubated at 37°C in a humidified atmosphere containing 5% CO2. Culture media were replaced every three days.
(§4) Human astrocytes and glioma U87 grown in 75-cm2 flasks until confluence were washed in PBS, detached and spun down at 4°C. The cell pellet was washed, re-suspended in PBS containing 1% BSA and incubated with 10 µg/mL non-immune rabbit IgGs for 30 min. […] Cells were incubated with an FITC- or PerCP-conjugated goat anti-rabbit secondary antibody (Santa Cruz) diluted 1∶200 and measured in the FL1 (530 nm) or FL3 (670 nm) channel. Cells were analyzed on a FACScalibur flow cytometer (BD Biosciences) operated with the Cell QuestTM software. Samples in which the primary antibodies were omitted were used as control to normalize mean fluorescence levels. […] Each histogram plot was recorded from at least 10,000 gated events.
On the technique in general: Flow cytometry measures light scatter and fluorescence of single cells or particles in a stream.

In assay [3] the test system is UT in native human astrocytes. In words: Flow cytometry of cell surface UT in native human astrocytes. The settings on record: hUII 10^−8 M, 30 min. On the procedure: as §3, §4

`O=C(O)C1=CCNCC1` [Iso, isoguvacine]: the “GABAAR internalization without UT” value in assay [1] is reported as “remained able to provoke GABAAR removal from the plasma membrane”. The same compound displayed a GABAAR endocytosis in assay [2] of 39.31±2.84%.

For “ETPDCFWKYCV (disulfide) [hUII, human urotensin II, synthesized by solid phase methodology]”, the “GABAAR internalization without UT” value in assay [1] is “failed to induce GABAAR internalization”. Besides, in the assay with human UT^c-myc, the “Effect on cell membrane amounts of UT^c-myc” value was “without modifying cell membrane amounts of UT^c-myc”. In addition, the “UT at cell surface, U87” value in the assay with UT in human U87 glioma is reported as “still present at the cell surface in U87”. The same compound had a GABAAR endocytosis in assay [2] of 40.29±4.14%. Besides, in assay [3], the “UT at cell surface, human astrocytes” value is given as “UT internalized in native astrocytes”.

Turning to “UII: Urotensin II, species not stated at that place (rUII in astrocytes, hUII in CHO and human cells)”, the “Effect on cell membrane amounts of UT^c-myc” value with human UT^c-myc is “failed to internalize UT in CHO and U87”. In the assay with UT in human U87 glioma, the “UT at cell surface, U87” value was “failed to internalize UT in CHO and U87”. The “UT at cell surface, human astrocytes” value in assay [3] is recorded as “led to UT loss from human astrocyte surface”.
